We go through one compound from patent US6465490B1, “Sulfuric acid mono-[3({1-[2-(4-fluoro-phenyl)-ethyl]-piperidin-4-yl}-hydroxy-methyl)-2-methoxy-phenyl]ester” (Aventis Pharmaceuticals Inc., priority 1999, dated 2002).

The data set in a line: Bovine Brain Endothelial Cells (BBMEC) transport studies, in vitro blood-brain barrier permeability. In kind it is in vitro ADME. The following applies: mean ± standard deviation. Here is the method: The compounds of this invention are capable of crossing the blood-brain barrier (BBB) as shown by their ability to penetrate across a membrane of a monolayer of bovine brain microvessel endothelial cells, an in vitro model for B3B permeability.
Bovine Brain Endothelial Cells (BBMEC) TIransport Studies
The procedure was performed according to: Kenneth L. Audus et al., Brain Microvessel Endothelial Cell Culture System (Chapter 13) pp 239-258. In Models for Assessing Drug Absorption and Metabolism, Ronald T. Borchardt et al. eds., Plenum Press, New York 1996, incorporated herein by reference.

Structures are written as SMILES.

In general, Papp refers to a coefficient for how fast a substance crosses the barrier. A high value points to ready permeation.

In the case of `COc1c(O[Si](C(C)C)(C(C)C)C(C)C)cccc1C(OC(=O)[C@@H](OC)c1ccccc1)C1CCN(CCc2ccc(F)cc2)CC1` (stereo partly drawn) [Example 1C, (S)-Methoxy-2-phenyl-acetic acid {1-[2-(4-fluoro-phenyl)-ethyl]-piperidin-4-yl}-(2-methoxy-3-triisopropylsilanyloxy-phenyl)-methyl ester], where the note is “5.4 μM”, the apparent permeability (Papp) at 5.4 µM stood at 41.4 ± 16.4 ×10⁻⁶ cm/s. For the setting “16 μM”, this compound had an apparent permeability coefficient (Papp) at 16 µM of 52.5 ± 9.5 ×10⁻⁶ cm/s.
